Data taken from US8217051B2, “Spiroindolinone derivatives” (Hoffmann-La Roche Inc., priority 2009, dated 2012).

Target: interaction between p53 and MDM2 proteins (Homo sapiens, UniProt Q00987)
Experiment: HTRF assay of inhibition of p53-MDM2 interaction (GST-MDM2 / biotinylated p53 peptide)
Format: binding
Settings: 0.02% BSA
Description: The ability of the compounds to inhibit the interaction between p53 and MDM2 proteins was measured by an HTRF (homogeneous time-resolved fluorescence) assay in which recombinant GST-tagged MDM2 binds to a peptide that resembles the MDM2-interacting region of p53 (Lane et al.). Binding of GST-MDM2 protein and p53-peptide (biotinylated on its N-terminal end) is registered by the FRET (fluorescence resonance energy transfer) between Europium (Eu)-labeled anti-GST antibody and streptavidin-conjugated Allophycocyanin (APC).
Test is performed in black flat-bottom 384-well plates (Costar) in a total volume of […] containing:90 nM biotinylate peptide, 160 ng/ml GST-MDM2, 20 nM streptavidin-APC (PerkinElmerWallac), 2 nM Eu-labeled anti-GST-antibody (PerkinElmerWallac), 0.2% bovine serum albumin (BSA), 1 mM dithiothreitol (DTT) and 20 mM […] (TBS) buffer as follows: Add 10 uL of GST-MDM2 (640 ng/ml working solution) in reaction buffer to each well. Add 10 uL diluted compounds (1:5 dilution in reaction buffer) to each well, mix by shaking. Add 20 uL biotinylated p53 peptide (180 nM working solution) in reaction buffer to each well and mix on shaker. Incubate at 37° C. for 1 h. Add 20 uL streptavidin-APC and Eu-anti-GST antibody mixture (6 nM Eu-anti-GST and 60 nM streptavidin-APC working solution) in TBS buffer with 0.2% BSA, shake at room temperature for 30 minutes and read using a TRF-capable plate reader at 665 and 615 nm (Victor 5, Perkin ElmerWallac). If not specified, the reagents were purchased from Sigma Chemical Co.

interaction between p53 and MDM2 proteins, sequence (Q00987 whole entry): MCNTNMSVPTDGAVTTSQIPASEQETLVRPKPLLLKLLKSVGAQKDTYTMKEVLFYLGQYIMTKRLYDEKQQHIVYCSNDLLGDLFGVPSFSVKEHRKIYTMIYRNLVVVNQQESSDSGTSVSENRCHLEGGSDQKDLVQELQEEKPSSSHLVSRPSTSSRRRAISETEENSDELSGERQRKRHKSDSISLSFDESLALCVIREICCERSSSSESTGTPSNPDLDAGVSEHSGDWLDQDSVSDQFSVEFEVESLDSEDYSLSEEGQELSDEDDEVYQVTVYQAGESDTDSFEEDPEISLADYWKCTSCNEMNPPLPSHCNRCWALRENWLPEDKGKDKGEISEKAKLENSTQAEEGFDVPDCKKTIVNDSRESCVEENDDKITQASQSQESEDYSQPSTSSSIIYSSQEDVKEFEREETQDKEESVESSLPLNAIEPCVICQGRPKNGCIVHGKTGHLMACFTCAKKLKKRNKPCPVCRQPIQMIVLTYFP

Going from `O=C1C=C(c2cccc(Cl)c2)[C@]2(C(=O)Nc3cc(Cl)ccc32)[C@@H](c2cc(Cl)ccc2OC2CCOCC2)N1` (racemic) [Example 12, racemic(2′R,3R)-6-chloro-4′-(3-chloro-phenyl)-2′-[5-chloro-2-(tetrahydro-pyran-4-yloxy)-phenyl]-1′,3′-dihydrospiro[3H-indole-3,3′-pyridine]-2,6′(1H)-dione] to `O=C1C=C(c2cccc(F)c2)[C@]2(C(=O)Nc3cc(Cl)ccc32)[C@@H](c2cc(Cl)ccc2OC2CCOCC2)N1` (racemic) [Example 16, racemic(2′R,3R)-6-chloro-2′-[5-chloro-2-(tetrahydro-pyran-4-yloxy)-phenyl]-4′-(3-fluoro-phenyl)-1′,3′-dihydrospiro[3H-indole-3,3′-pyridine]-2,6′(1H)-dione], the IC50 rises from 273 nM to 482 nM (1.8-fold).

Compared with `Cc1ccc(F)cc1[C@H]1NC(=O)C=C(c2cccc(Cl)c2)[C@]12C(=O)Nc1cc(Cl)ccc12` [Example 6, chiral(2′R,3R)-6-chloro-4′-(3-chloro-phenyl)-2′-(5-fluoro-2-methyl-phenyl)-1′,3′-dihydrospiro[3H-indole-3,3′(2′H)-pyridine]-2,6′(1H)-dione], `Cc1ccc(F)cc1[C@H]1NC(=O)C=C(c2cccnc2)[C@]12C(=O)Nc1cc(Cl)ccc12` (racemic) [Example 40, racemic(2′R,3R)-6-chloro-2′-(5-fluoro-2-methyl-phenyl)-4′-(pyridin-3-yl)-1′,3′-dihydrospiro[3H-indole-3,3′(2′H)-pyridine]-2,6′(1H)-dione] is 97-fold higher in IC50: 66 nM for the first, 6420 nM for the second. The first is the more potent here.

`Cc1ccc(F)cc1[C@H]1NC(=O)C=C(c2ccoc2)[C@]12C(=O)Nc1cc(Cl)ccc12` (racemic) [Example 32, racemic(2′R,3R)-6-chloro-2′-(5-fluoro-2-methyl-phenyl)-4′-(furan-3-yl)-1′,3′-dihydrospiro[3H-indole-3,3′(2′H)-pyridine]-2,6′(1H)-dione] was tested, and the IC50 was 5300 nM.
